In ChEMBL document CHEMBL1135325, “Novel piperidinium and pyridinium agents as water-soluble acetylcholinesterase inhibitors for the reversal of neuromuscular blockade” (Bioorg Med Chem Lett, 2002):

How the values were obtained:
Acetylcholinesterase = Acetylcholinesterase (Homo sapiens, UniProt P22303); assay: Concentration required for the inhibition of acetylcholinesterase
[1] = Aqueous solubility; type: physicochemical; settings: water; for solubility: read-out: S

Sequence of Acetylcholinesterase (P22303 whole entry): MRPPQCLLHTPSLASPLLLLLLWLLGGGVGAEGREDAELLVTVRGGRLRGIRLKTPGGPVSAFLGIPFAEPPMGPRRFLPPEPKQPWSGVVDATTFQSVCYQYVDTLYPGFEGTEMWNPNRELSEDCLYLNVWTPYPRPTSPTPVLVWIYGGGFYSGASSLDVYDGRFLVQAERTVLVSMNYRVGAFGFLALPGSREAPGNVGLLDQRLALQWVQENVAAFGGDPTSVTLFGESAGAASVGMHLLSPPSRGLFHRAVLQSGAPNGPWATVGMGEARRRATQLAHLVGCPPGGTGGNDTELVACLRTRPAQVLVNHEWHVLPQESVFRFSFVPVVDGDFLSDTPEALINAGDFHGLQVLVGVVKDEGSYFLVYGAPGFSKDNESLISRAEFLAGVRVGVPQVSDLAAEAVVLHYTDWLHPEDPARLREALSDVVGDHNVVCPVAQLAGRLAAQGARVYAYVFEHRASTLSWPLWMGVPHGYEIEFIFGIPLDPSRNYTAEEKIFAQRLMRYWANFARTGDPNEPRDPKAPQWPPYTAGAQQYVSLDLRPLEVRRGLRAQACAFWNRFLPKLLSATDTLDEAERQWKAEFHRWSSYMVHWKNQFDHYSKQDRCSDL

SMILES | IC50 (Acetylcholinesterase) | solubility [1] | Solubility (Aqueous solubility) | S [1]
COc1cc2cc(C(=O)CCC3CC[N+](C)(CC(=O)OC(C)(C)C)CC3)sc2cc1OC.[Br-] (stereo not drawn) | 0.079 µM | 1.5 mg/mL | – | –
COc1cc2cc(C(=O)CCC3CC[N+](C)(CC4CCCCO4)CC3)sc2cc1OC.[Br-] (stereo not drawn) | 0.028 µM | 1.5 mg/mL | – | –
COC(=O)C[N+]1(C)CCC(CCC(=O)c2cc3cc(OC)c(OC)cc3s2)CC1.[Br-] (stereo not drawn) | 0.054 µM | 60 mg/mL | – | –
COc1cc2cc(C=C3CC[N+](C)(Cc4ccccc4)CC3)sc2cc1OC.[Br-] (stereo not drawn) | 2.67 µM | 1 mg/mL | – | –
COc1cc2cc(CC3CC[N+](C)(Cc4ccccc4)CC3)sc2cc1OC.[Br-] (stereo not drawn) | 10 µM | 3 mg/mL | – | –
COc1cc2cc(C(O)C3CC[N+](C)(Cc4ccccc4)CC3)sc2cc1OC.[Br-] (stereo not drawn) | 19.6 µM | 2 mg/mL | – | –
COc1cc2cc(C(=O)CC3=CC[N+](C)(Cc4ccccc4)CC3)sc2cc1OC.[Br-] (stereo not drawn) | 0.75 µM | 20 mg/mL | – | –
COc1cc2cc(C(=O)CCc3cc[n+](Cc4ccc([N+](=O)[O-])o4)cc3)sc2cc1OC.[Br-] | 0.0045 µM | 35 mg/mL | – | –
C=CC[n+]1ccc(CCC(=O)c2cc3cc(OC)c(OC)cc3s2)cc1.[Br-] | 0.54 µM | 25 mg/mL | – | –
COc1cc2cc(C(=O)CC(O)C3CC[N+](C)(Cc4ccccc4)CC3)sc2cc1OC (stereo in doubt; 9) [listing 1 of 2 here] | – | – | 10 mg/mL | –
COc1cc2cc(C(=O)CC3(O)CC[N+](C)(Cc4ccccc4)CC3)sc2cc1OC.[Br-] (stereo not drawn) | – | 1.25 mg/mL | – | –
COc1cc2cc(C(=O)CC(O)C3CC[N+](C)(Cc4ccccc4)CC3)sc2cc1OC.[Br-] (stereo in doubt; 6) | 0.043 µM | – | – | 10 mg/mL
COc1cc2cc(C(=O)C=C3CC[N+](C)(Cc4ccccc4)CC3)sc2cc1OC.[Br-] (stereo not drawn) | 0.52 µM | 25 mg/mL | – | –
COc1cc2cc(C(=O)CC(O)CCC3CC[N+](C)(Cc4ccccc4)CC3)sc2cc1OC.[Br-] (stereo not drawn) | 0.38 µM | 2.5 mg/mL | – | –
COc1cc2cc(C(=O)CCCCC3CC[N+](C)(Cc4ccccc4)CC3)sc2cc1OC.[Br-] (stereo not drawn) | 0.11 µM | 1 mg/mL | – | –
COc1cc2cc(C(=O)CCc3cc[n+](Cc4ccsc4)cc3)sc2cc1OC | 0.006 µM | 2 mg/mL | – | –
COc1cc2cc(C(=O)CCc3cc[n+](C)cc3)sc2cc1OC.[Br-] | 0.9 µM | 3 mg/mL | – | –
COc1cc2cc(C(=O)CCC3CC[N+](C)(Cc4ccc([N+](=O)[O-])o4)CC3)sc2cc1OC.[Br-] (stereo not drawn) | 0.032 µM | 0.6 mg/mL | – | –

SMILES | IC50 (Acetylcholinesterase) | solubility [1] | Solubility (Aqueous solubility) | S [1]
COc1cc2cc(C(=O)CCC3CC[N+](C)(Cc4ccccc4)CC3)sc2cc1OC.[Br-] (stereo not drawn) | – | 2 mg/mL | – | –
COCC[n+]1ccc(CCC(=O)c2cc3cc(OC)c(OC)cc3s2)cc1 | 0.03 µM | 33 mg/mL | – | –
COc1cc2cc(C(=O)CC(O)C3CC[N+](C)(Cc4ccccc4)CC3)sc2cc1OC (stereo in doubt; 9) [listing 2 of 2 here] | 0.19 µM | – | – | –
COc1cc2cc(C(=O)CCc3cc[n+](Cc4ccc(F)cc4)cc3)sc2cc1OC | 0.0026 µM | 1 mg/mL | – | –
COc1cc2cc(C(=O)CCC3CC[N+](C)(CCOc4ccccc4)CC3)sc2cc1OC.[Br-] (stereo not drawn) | 0.39 µM | 0.9 mg/mL | – | –
COCC[N+]1(C)CCC(CCC(=O)c2cc3cc(OC)c(OC)cc3s2)CC1.[Br-] (stereo not drawn) | 0.053 µM | 60 mg/mL | – | –
COC(=O)c1ccc(C[n+]2ccc(CCC(=O)c3cc4cc(OC)c(OC)cc4s3)cc2)cc1 | – | 3.5 mg/mL | – | –
COc1cc2cc(C(=O)CCc3cc[n+](Cc4ccccc4)cc3)sc2cc1OC | – | 2 mg/mL | – | –
COc1cc2cc(C(=O)CC(O)C3CC[N+](C)(Cc4ccccc4)CC3)sc2cc1OC.[Br-] (single isomer, unassigned; (+)) | 0.219 µM | 10 mg/mL | – | –
COc1cc2cc(C(=O)CCC3CC[N+](C)(CC#N)CC3)sc2cc1OC.[Br-] (stereo not drawn) | > 1 µM | 2 mg/mL | – | –
COc1cc2cc(C(=O)CCc3cc[n+](CC4CCC4)cc3)sc2cc1OC.[Br-] | 0.04 µM | 6 mg/mL | – | –
COc1cc2cc(C(=O)CC(OC)C3CC[N+](C)(Cc4ccccc4)CC3)sc2cc1OC.[Br-] (stereo not drawn) | 0.12 µM | 1.5 mg/mL | – | –
CCOCC[n+]1ccc(CCC(=O)c2cc3cc(OC)c(OC)cc3s2)cc1 | 0.007 µM | 50 mg/mL | – | –
COc1cc2cc(C(=O)CCc3cc[n+](CC4CC4)cc3)sc2cc1OC.[Br-] | 0.11 µM | 15 mg/mL | – | –
CC[n+]1ccc(CCC(=O)c2cc3cc(OC)c(OC)cc3s2)cc1.[Br-] | 0.28 µM | 25 mg/mL | – | –
COc1cc2cc(C(=O)CC(O)C3CC[N+](C)(Cc4ccccc4)CC3)sc2cc1OC.[Br-] (single isomer, unassigned; (-)) | 0.665 µM | – | – | 8 mg/mL
CCC[n+]1ccc(CCC(=O)c2cc3cc(OC)c(OC)cc3s2)cc1.[Br-] | – | 16 mg/mL | – | –
